Patent US20120135923A1, “Use of Melanocortins to Treat Dyslipidemia” (IPSEN PHARMA, S.A.S., priority 2009, published 2012)
Read-outs that look alike come from different tables or passages of the source. Bridge positions count the residues as written; N and C are the ends. Square brackets hold non-standard residues; d marks the D form. Peptide text beside a SMILES is read from it. Pen = CC(C)(S)[C@H](N)C(=O)O; Nle = CCCC[C@H](N)C(=O)O; GABA = NCCCC(=O)O

What was measured:
Assay in all cases: cyclic AMP bioassay (ECL) in CHO-K1 cells
Type in all cases: cell-based
hMC1-R = target: T1, hMC1-R (Homo sapiens, UniProt Q01726)
T1 construct: expressed in transfected cells; host or cells: CHO-K1
T1 sequence (Q01726 whole entry): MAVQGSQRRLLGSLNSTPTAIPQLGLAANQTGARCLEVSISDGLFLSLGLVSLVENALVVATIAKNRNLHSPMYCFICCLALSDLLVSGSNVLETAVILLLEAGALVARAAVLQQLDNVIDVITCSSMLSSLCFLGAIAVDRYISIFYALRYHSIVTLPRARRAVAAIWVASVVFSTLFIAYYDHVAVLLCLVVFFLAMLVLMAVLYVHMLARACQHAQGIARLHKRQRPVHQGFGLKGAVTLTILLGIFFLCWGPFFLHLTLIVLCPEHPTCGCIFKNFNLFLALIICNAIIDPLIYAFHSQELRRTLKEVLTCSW

hMC4-R = target: T2, hMC4-R (Homo sapiens, UniProt P32245)
T2 construct: expressed in transfected cells; host or cells: CHO-K1
T2 sequence (P32245 whole entry): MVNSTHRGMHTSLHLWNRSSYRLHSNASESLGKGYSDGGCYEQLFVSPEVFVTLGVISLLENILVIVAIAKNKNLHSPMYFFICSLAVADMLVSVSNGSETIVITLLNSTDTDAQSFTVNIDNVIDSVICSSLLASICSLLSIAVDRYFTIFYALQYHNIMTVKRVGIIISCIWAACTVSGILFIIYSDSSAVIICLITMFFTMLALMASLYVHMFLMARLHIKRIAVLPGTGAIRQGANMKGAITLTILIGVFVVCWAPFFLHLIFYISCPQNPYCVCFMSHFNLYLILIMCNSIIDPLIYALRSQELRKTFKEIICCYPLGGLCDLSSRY
Protocol: (§1) Intracellular cyclic AMP (cAMP) levels were determined by an electrochemiluminescence (ECL) assay (Meso Scale Discovery®, Gaithersburg, Md.; referred to hereinafter as MSD). […] Transgenic CHO-K1 cells stably expressing hMC receptor subtypes 1, 3, 4 or 5 were dispensed at a density of approximately 7,000 cells/well in 384-well Multi-Array®plates (MSD) containing integrated carbon electrodes and coated with anti-cAMP antibody. Increasing concentrations of the test compounds were added and the cells were incubated for approximately 40 minutes at approximately 37° C. […] At the end of the second incubation period read buffer (Tris-buffered solution containing an ECL co-reactant and Triton X-100 at ph 7.8) was added and the cAMP levels in the cell lysates were immediately determined by ECL detection with a Sector Imager 6000 Reader® (MSD). Data were analyzed using a computer-assisted non-linear regression analysis (XL fit; IDBS) and reported as either an EC50 value or a Kb value.
(§2) The Kb value reflects the potency of an antagonist and is determined by Schild analysis. In brief, concentration-response curves of an agonist are carried out in the presence of increasing concentrations of an antagonist. […] It is calculated by extrapolating the line on a Schild plot to zero on the y-axis.

hMC5-R = target: T3, hMC5-R (Homo sapiens, UniProt P33032)
T3 construct: expressed in transfected cells; host or cells: CHO-K1
T3 sequence (P33032 whole entry): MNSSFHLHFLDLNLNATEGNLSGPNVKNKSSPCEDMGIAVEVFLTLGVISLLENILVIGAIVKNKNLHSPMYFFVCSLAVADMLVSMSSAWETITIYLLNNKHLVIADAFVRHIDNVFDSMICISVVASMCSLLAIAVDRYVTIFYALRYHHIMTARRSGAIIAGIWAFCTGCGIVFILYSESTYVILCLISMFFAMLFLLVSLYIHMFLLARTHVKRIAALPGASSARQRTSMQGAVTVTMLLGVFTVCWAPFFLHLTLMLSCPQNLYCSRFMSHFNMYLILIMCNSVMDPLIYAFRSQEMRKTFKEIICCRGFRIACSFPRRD

hMC3-R = target: T4, hMC3-R (Homo sapiens, UniProt P41968)
T4 construct: expressed in transfected cells; host or cells: CHO-K1
T4 sequence (P41968 whole entry): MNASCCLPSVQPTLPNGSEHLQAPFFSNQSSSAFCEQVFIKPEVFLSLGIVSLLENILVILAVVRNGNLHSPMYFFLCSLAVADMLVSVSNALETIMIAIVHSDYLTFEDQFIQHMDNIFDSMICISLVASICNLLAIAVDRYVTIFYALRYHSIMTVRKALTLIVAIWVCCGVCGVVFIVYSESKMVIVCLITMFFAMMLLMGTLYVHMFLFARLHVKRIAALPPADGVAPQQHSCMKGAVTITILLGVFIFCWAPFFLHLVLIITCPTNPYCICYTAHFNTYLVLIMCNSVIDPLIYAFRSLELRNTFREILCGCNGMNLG
Protocol: as §1, §2

Structure (SMILES) | EC50 (hMC4-R) [nM] | EC50 (hMC3-R) [nM] | also measured
CCCC[C@H](NC(C)=O)C(=O)N[C@H]1CSSC(C)(C)[C@@H](C(N)=O)NC(=O)CCCNC(=O)[C@H](Cc2c[nH]c3ccccc23)NC(=O)[C@H](CCCNC(=N)N)NC(=O)[C@@H](Cc2ccccc2)NC(=O)[C@H](Cc2c[nH]cn2)NC1=O [Ac-Nle-c(Cys-His-D-Phe-Arg-Trp-Gaba-Pen)-NH2] (Ac-[Nle]CH[dF]RW[GABA][Pen]-NH2; disulfide 2-8) | – | – | EC50 (hMC1-R; Table 9A/9B, read-out: EC50 hMC1-R): 0.28 nM; EC50 (hMC4-R; Table 9A/9B, read-out: EC50 hMC4-R): 0.028 nM; EC50 (hMC5-R; Table 9A/9B, read-out: EC50 hMC5-R): 3.9 nM; EC50 (hMC3-R; Table 9A/9B, read-out: EC50 hMC3-R): 0.24 nM
CCCC[C@H](NC(C)=O)C(=O)N[C@H]1CC(=O)NCCCC[C@@H](C(N)=O)NC(=O)[C@H](C)NC(=O)[C@H](Cc2c[nH]c3ccccc23)NC(=O)[C@H](CCCNC(=N)N)NC(=O)[C@@H](Cc2ccc3ccccc3c2)NC(=O)[C@H](Cc2c[nH]cn2)NC1=O [Ac-Nle-c(Asp-His-D-2-Nal-Arg-Trp-Ala-Lys)-NH2] | – | – | EC50 (hMC1-R; Table 9C/9D, read-out: EC50 hMC1-R): 0.619 nM
CCCC[C@@H](C(=O)N[C@H]1CSSC[C@@H](C(N)=O)NC(=O)[C@H](Cc2c[nH]c3ccccc23)NC(=O)[C@H](CCCNC(=N)N)NC(=O)[C@@H](Cc2ccccc2)NC(=O)[C@H](Cc2cnc[nH]2)NC(=O)[C@@H](C)NC1=O)N1C(=O)N[C@@H](C(C)C)C1=O [Hydantoin(C(O)-(Val-Nle))-c(Cys-D-Ala-His-D-Phe-Arg-Trp-Cys)-NH2] | 0.977 | 4.61 | –
C[C@@H]1NC(=O)N(CC(=O)N[C@H]2CSSC[C@@H](C(N)=O)NC(=O)[C@H](Cc3c[nH]c4ccccc34)NC(=O)[C@H](CCCNC(=N)N)NC(=O)[C@@H](Cc3ccccc3)NC(=O)[C@H](Cc3cnc[nH]3)NC(=O)[C@@H](C)NC2=O)C1=O [Hydantoin(C(O)-(Ala-Gly))-c(Cys-D-Ala-His-D-Phe-Arg-Trp-Cys)-NH2] | 0.241 | 2.23 | EC50 (hMC5-R): 516 nM
CCCC[C@@H](C(=O)N[C@H]1CSSC[C@@H](C(N)=O)NC(=O)[C@H](Cc2c[nH]c3ccccc23)NC(=O)[C@H](CCCNC(=N)N)NC(=O)[C@@H](Cc2ccccc2)NC(=O)[C@H](Cc2cnc[nH]2)NC(=O)[C@@H](C)NC1=O)N1C(=O)N[C@@H](CC(C)C)C1=O [Hydantoin(C(O)-(Leu-Nle))-c(Cys-D-Ala-His-D-Phe-Arg-Trp-Cys)-NH2] | 1.83 | 9.68 | –
CCCC[C@H](NC(C)=O)C(=O)N[C@@H]1C(=O)N[C@H](C)C(=O)N[C@@H](Cc2c[nH]cn2)C(=O)N[C@H](Cc2ccccc2)C(=O)N[C@@H](CCCNC(=N)N)C(=O)N[C@@H](Cc2c[nH]c3ccccc23)C(=O)N[C@H](C(N)=O)CSSC1(C)C [Ac-Nle-c(Pen-D-Ala-His-D-Phe-Arg-Trp-Cys)-NH2] | 0.531 | 1.89 | –
C[C@H]1NC(=O)[C@@H](NC(=O)CN2C(=O)N[C@@H](CCCNC(=N)N)C2=O)CSSC[C@@H](C(N)=O)NC(=O)[C@H](Cc2c[nH]c3ccccc23)NC(=O)[C@H](CCCNC(=N)N)NC(=O)[C@@H](Cc2ccccc2)NC(=O)[C@H](Cc2cnc[nH]2)NC1=O [Hydantoin(C(O)-(Arg-Gly))-c(Cys-D-Ala-His-D-Phe-Arg-Trp-Cys)-NH2] | 0.503 | 18.2 | EC50 (hMC1-R): 8.81 nM
C[C@H]1NC(=O)[C@@H](NC(=O)[C@H](CCCNC(=N)N)N2C(=O)CNC2=O)CSSC[C@@H](C(N)=O)NC(=O)[C@H](Cc2c[nH]c3ccccc23)NC(=O)[C@H](CCCNC(=N)N)NC(=O)[C@@H](Cc2ccccc2)NC(=O)[C@H](Cc2cnc[nH]2)NC1=O [Hydantoin(C(O)-(Gly-Arg))-c(Cys-D-Ala-His-D-Phe-Arg-Trp-Cys)-NH2] | 0.599 | 5.17 | EC50 (hMC1-R): 8.85 nM
N=C(N)NCCC[C@@H]1NC(=O)[C@@H](Cc2ccccc2)NC(=O)[C@H](Cc2cnc[nH]2)NC(=O)[C@H](CCC(=O)O)NC(=O)[C@@H](NC(=O)CN2C(=O)CNC2=O)CSSC[C@@H](C(N)=O)NC(=O)[C@H](Cc2c[nH]c3ccccc23)NC1=O [Hydantoin(C(O)-(Gly-Gly))-c(Cys-Glu-His-D-Phe-Arg-Trp-Cys)-NH2] | – | – | EC50 (hMC1-R; Table 11, read-out: EC50 hMC1): 124 nM; EC50 (hMC3-R; Table 11, read-out: EC50 hMC3): 8.05 nM
